Assay [1] concerns GTPase KRas (Homo sapiens), P01116 [G12V]. The experiment in a line: Inhibition of alexa fluor 647-labeled kinase tracer 314 binding to biotinylated-KRAS G12V mutant (unknown origin) at 100 uM measured after 60 mins by HTRF competition binding assay. For orientation: In TR-FRET formats the signal depends on donor and acceptor labels being close together.
The target of the next assay is GTPase KRas (Homo sapiens, UniProt P01116, G12V). The experiment in a line: Inhibition of alexa fluor 647-labeled kinase tracer 314 binding to biotinylated-KRAS G12V mutant (unknown origin) measured after 60 mins by HTRF competition binding assay. The note with it: read-out: IC50.
Assay [2] can be described thus: Inhibition of GDP-tagged biotinylated KRas G12C mutant (unknown origin)/GST-Raf (unknown origin) assessed as SOS-mediated nucleotide exchange measured after 1 hr by HRTF assay. Details: species or system Homo sapiens.

Usually inhibition stands for how much of the control response was suppressed. Higher therefore signals strong suppression. One may read the IC50 as the point on the concentration scale where inhibition reaches its midpoint.

The compound `CC[C@H](C)[C@@H]1NC(=O)[C@@H]2CCCN2C(=O)[C@H](Cc2ccc(O)cc2)NC(=O)CCCCn2cc(nn2)COC[C@@H](C(=O)N[C@@H](CC(C)C)C(N)=O)NC1=O` yielded an inhibition in assay [1] of 22%. The 50% inhibitory concentration (IC50) on GTPase KRas was above 100 µM; in assay [2], above 30 µM.
In the case of `CC(C)C[C@H](NC(=O)[C@@H]1COCc2cnnn2CCC(=O)NCC(=O)N2CCC[C@H]2C(=O)N[C@@H](Cc2cccc3ccccc23)C(=O)N1)C(N)=O`, the IC50 was found to be 7 µM on GTPase KRas and 3.6 µM in assay [2].
Take `CC[C@H](C)[C@@H]1NC(=O)[C@@H]2CCCN2C(=O)[C@H](Cc2ccc(O)cc2)NC(=O)CCCCn2cc(nn2)CSC[C@@H](C(=O)N[C@@H](CC(C)C)C(N)=O)NC1=O`: in assay [1], the inhibition turned out to be 0%. The figures for the IC50 (at GTPase KRas; in assay [2]) were above 100 µM and above 30 µM, respectively.
For `CC[C@H](C)[C@@H]1NC(=O)[C@@H]2CCCN2C(=O)[C@H](Cc2ccc(O)cc2)NC(=O)CCCCn2nncc2CSC[C@@H](C(=O)N[C@@H](CC(C)C)C(N)=O)NC1=O` the same measures were 20%, above 100 µM and above 30 µM.
In the case of `CC[C@H](C)[C@@H]1NC(=O)[C@@H]2CCCN2C(=O)[C@H](Cc2ccccc2)NC(=O)CCCc2cn(nn2)C[C@@H](C(=O)N[C@@H](CC(C)C)C(N)=O)NC1=O`, the inhibition in assay [1] was 8%. The half-maximal inhibitory concentration (IC50) on GTPase KRas is above 100 µM; in assay [2], above 30 µM.
Regarding `CC[C@H](C)[C@@H]1NC(=O)[C@@H]2CCCN2C(=O)[C@H](Cc2ccc(O)cc2)NC(=O)CCCCn2nncc2COC[C@@H](C(=O)N[C@@H](CC(C)C)C(N)=O)NC1=O`, the inhibition in assay [1] came out at 28%. Further, the figures for the IC50 (at GTPase KRas; in assay [2]) were above 100 µM and above 30 µM, respectively.
Consider `CC(C)C[C@H](NC(=O)[C@@H]1COCc2cnnn2CCCC(=O)NCC(=O)N2CCC[C@H]2C(=O)N[C@@H](Cc2cccc3ccccc23)C(=O)N1)C(N)=O`, for which the IC50 on GTPase KRas amounted to 10 µM; in assay [2], 4.1 µM.
With `CC(C)C[C@H](NC(=O)[C@@H]1COCc2cnnn2CCCCC(=O)NCC(=O)N2CCOC[C@H]2C(=O)N[C@@H](Cc2cccc3ccccc23)C(=O)N1)C(N)=O`, the IC50 was determined as 6.5 µM at GTPase KRas and 5 µM in assay [2].
In assay [1], `CC[C@H](C)[C@@H]1NC(=O)[C@@H]2CCCN2C(=O)[C@H](Cc2ccccc2)NC(=O)CCCc2cn(nn2)CC[C@@H](C(=O)N[C@@H](CC(C)C)C(N)=O)NC1=O` displayed an inhibition of 9%. Besides, the IC50 was above 100 µM at GTPase KRas and above 30 µM in assay [2].
For `CC(C)C[C@H](NC(=O)[C@@H]1COCc2cnnn2CCCCC(=O)NCC(=O)N2CCCC[C@H]2C(=O)N[C@@H](Cc2cccc3ccccc23)C(=O)N1)C(N)=O`, the IC50 on GTPase KRas stood at 7.7 µM; in assay [2], 2.4 µM.
`CC(C)C[C@H](NC(=O)[C@@H]1COCc2cnnn2CC(=O)NCC(=O)N2CCC[C@H]2C(=O)N[C@@H](Cc2cccc3ccccc23)C(=O)N1)C(N)=O`: the IC50 on GTPase KRas was 9.6 µM; in assay [2], 3.2 µM.

The values are drawn from ChEMBL document CHEMBL5055671, “Targeting a Novel KRAS Binding Site: Application of One-Component Stapling of Small (5-6-mer) Peptides” (J Med Chem, 2021).
